Experimental data published in patent publication US20150038543A1, “ANTI-GLYCATION PROPERTIES OF OXINDOLE DERIVATIVES” (priority 2013, published 2015).
“And” between values parts separate entries of the source, which are not always exact repeats. Equal entries are not always repeated. Where two headings read alike, the source gives them in different places.

Molecular target: T1, BSA-MG glycation model (bovine serum albumin + methylglyoxal) (Bos taurus, UniProt P02769)
T1 construct: purchased Merck Marker Pvt; Ltd. (Germany)
Assay: in vitro BSA-MG glycation model (fluorescence of AGE formation)
Assay type: biochemical
Details: for activity against the protein glycation (in words): in vitro protein glycation, compared with standard rutin
Protocol: Bovine serum albumin (BSA) was purchased from Merck Marker Pvt. Ltd. (Germany), rutin and methylglyoxal (MG) (40% aqueous solution) were from Sigma Aldrich (Japan), sodium dihydrogen phosphate (NaH2PO4), disodium hydrogen phosphate (Na2HPO4) and sodium azide (NaN3) were purchased from Scharlau Chemie, S. A. (Spain), while dimethyl sulphoxide (DMSO) was purchased from Fischer Scientific (UK).
The total reaction volume of the assay was 200 μL, having final concentrations of 10 mg/mL BSA, 14 mM methylglyoxal, and 1 mM test compounds. 10 mg/mL solution of BSA and 14 mM methylglyoxal was prepared in 0.1 M phosphate buffer (pH 7.4), containing sodium azide (NaN3) (30 mM) as antimicrobial agent, while 1 mM solutions of test compounds were prepared in the DMSO. Assay was performed in triplicate. Each reaction mixtures were comprised of 50 μL BSA, 50 μL methylglyoxal, 20 μL test compound and 80 μL phosphate buffer (pH 7.4). The reaction mixture was incubated under aseptic conditions at 37° C. for 9 days.
After completion of nine days of incubation, each sample was examined for the development of specific fluorescence (excitation 330 nm; emission 420 nm) against blank on a microtitre plate reader (SpectraMax M2, Molecular Devices, CA, USA). The percent inhibition of AGE formation by the test sample versus control was calculated by using the following formula:
% Inhibition=(1−Fluorescence of test sample/Fluorescence of the control)×100
The IC50 (i.e. the concentration of test samples that inhibit the process of glycation to 50%) was determined by monitoring the effect of various concentrations (ranges from 1000-50 μM) of test compounds. The IC50 values were calculated by using EZ-FIT Enzyme Kinetics Program (Perrella Scientific Inc., Amherst, USA). The antiglycation potential of test compounds was compared with rutin, which was used as standard inhibitor.

[1] = BSA 10 mg/mL, methylglyoxal 14 mM, pH 7.4, 37° C., 9 days, test concentrations 1000-50 μM, triplicate, NA = not active, read-out: Antiglycation Activity IC50 ± SEM
[2] = read-out: % inhibition against BSA-MG glycation model, 1 mM test compound, BSA 10 mg/mL, methylglyoxal 14 mM, 37° C., 9 days
[3] = Antiglycation Activity IC50 ± SEM, BSA 10 mg/mL, methylglyoxal 14 mM, pH 7.4, 37° C., 9 days, test concentrations 1000-50 μM, triplicate, NA = not active
[4] = 1 mM test compound, BSA 10 mg/mL, methylglyoxal 14 mM, 37° C., 9 days, read-out: % inhibition against BSA-MG glycation model

T1 sequence (P02769 25-607): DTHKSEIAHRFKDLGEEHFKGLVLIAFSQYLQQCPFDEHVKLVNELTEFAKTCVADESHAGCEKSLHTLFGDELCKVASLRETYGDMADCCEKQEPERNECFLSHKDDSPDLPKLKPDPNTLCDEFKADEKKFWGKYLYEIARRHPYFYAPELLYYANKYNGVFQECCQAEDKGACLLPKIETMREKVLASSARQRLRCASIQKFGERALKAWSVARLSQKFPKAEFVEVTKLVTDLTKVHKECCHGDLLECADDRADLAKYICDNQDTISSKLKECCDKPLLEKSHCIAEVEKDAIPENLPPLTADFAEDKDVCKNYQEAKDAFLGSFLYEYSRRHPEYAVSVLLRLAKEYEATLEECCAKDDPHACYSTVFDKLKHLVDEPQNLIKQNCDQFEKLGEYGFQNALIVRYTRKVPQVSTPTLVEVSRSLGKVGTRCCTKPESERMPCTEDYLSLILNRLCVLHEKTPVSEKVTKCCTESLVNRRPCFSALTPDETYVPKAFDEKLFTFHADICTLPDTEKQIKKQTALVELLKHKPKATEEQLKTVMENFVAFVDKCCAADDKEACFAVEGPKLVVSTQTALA

Row | inhibition at 1000 µM [2] | IC50 [3] | Structure (SMILES) | also measured
1 |  | 194 µM and 194 to 455 µM | Cc1ccc(O)c(/C=C2/C(=O)Nc3ccccc32)c1 [Compound 13, 3-[(E)-(2-hydroxy-5-methylphenyl)methylidene]-1,3-dihydro-2H-indol-2-one] | activity against the protein glycation (in words): potent activity
2 |  | 151 µM and 150 µM | O=C1Nc2ccccc2/C1=C\c1cccc(Cl)c1 [Compound 14, 3-[(E)-(3-chlorophenyl)methylidene]-1,3-dihydro-2H-indol-2-one] | activity against the protein glycation (in words): potent activity
3 | < 50% |  | O=C1Nc2ccccc2/C1=C\c1cc(Cl)ccc1O [Compound 16, 3-[(E)-(5-chloro-2-hydroxyphenyl)methylidene]-1,3-dihydro-2H-indol-2-one] | 
4 | < 50% |  | O=C1Nc2ccccc2/C1=C\c1cccc([N+](=O)[O-])c1 [Compound 17, 3-[(E)-(3-nitrophenyl)methylidene]-1,3-dihydro-2H-indol-2-one] | 
5 |  | 856.7 ± 2.4 µM | O=C1Nc2ccccc2/C1=C\c1ccc(Cl)cc1Cl [Compound 18, 3-[(E)-(2,4-dichlorophenyl)methylidene]-1,3-dihydro-2H-indol-2-one] | 
6 | < 50% |  | O=C1Nc2ccccc2/C1=C\c1ccc(Cc2ccccc2)cc1 [Compound 21, 3-[(E)-(4-benzylphenyl)methylidene]-1,3-dihydro-2H-indol-2-one] | 

Second part, the molecule before the results:

Row | Structure (SMILES) | inhibition at 1000 µM [2] | IC50 [3] | also measured
7 | O=C1Nc2ccccc2/C1=C\c1cccc(O)c1 [Compound 1, 3-[(E)-(3-hydroxyphenyl)methylidene]-1,3-dihydro-2H-indol-2-one] |  |  | IC50 [1]: 282 µM and 194 to 455 µM; activity against the protein glycation (in words): potent activity
8 | O=C1Nc2ccccc2/C1=C\c1cccc2ccccc12 [Compound 2, 3-[(E)-1-naphthylmethylidene]-1,3-dihydro-2H-indol-2-one] | < 50% |  | IC50 (bovine, 9 days, pH 7.4): 194 to 455 µM
9 | CCOc1cccc(/C=C2/C(=O)Nc3ccccc32)c1O [Compound 3, 3-[(E)-(3-ethoxy-2-hydroxyphenyl)methylidene]-1,3-dihydro-2H-indol-2-one] |  | 268 µM and 194 to 455 µM | activity against the protein glycation (in words): potent activity
10 | O=C1Nc2ccccc2/C1=C\c1c2ccccc2cc2ccccc12 [Compound 4, 3-[(E)-9-anthrylmethylidene]-1,3-dihydro-2H-indol-2-one] |  | 456 µM and 194 to 455 µM | 
11 | O=C1Nc2ccccc2/C1=C\c1ccc(O)cc1 [Compound 5, 3-[(E)-(4-hydroxyphenyl)methylidene]-1,3-dihydro-2H-indol-2-one] |  |  | inhibition at 1000 µM [4]: < 50%
12 | CCOc1ccc(/C=C2/C(=O)Nc3ccccc32)cc1 [Compound 6, 3-[(E)-(4-ethoxyphenyl)methylidene]-1,3-dihydro-2H-indol-2-one] |  |  | inhibition at 1000 µM [4]: < 50%
13 | COc1ccccc1/C=C1/C(=O)Nc2ccccc21 [Compound 7, 3-[(E)-(2-methoxyphenyl)methylidene]-1,3-dihydro-2H-indol-2-one] | < 50% |  | IC50 (bovine, 9 days, pH 7.4): 194 to 455 µM
14 | O=C1Nc2ccccc2/C1=C\c1ccc(F)cc1 [Compound 8, 3-[(E)-(4-fluorophenyl)methylidene]-1,3-dihydro-2H-indol-2-one] |  | 211 ± 4.1 µM | activity against the protein glycation (in words): potent activity
15 | O=C1Nc2ccccc2/C1=C\c1ccccc1F [Compound 9, 3-[(E)-(2-fluorophenyl)methylidene]-1,3-dihydro-2H-indol-2-one] | < 50% |  | 
16 | CSc1ccc(/C=C2/C(=O)Nc3ccccc32)cc1 [Compound 10, 3-[(E)-(4-methylsulfanylphenyl)methylidene]-1,3-dihydro-2H-indol-2-one] | < 50% |  | 
17 | COc1cccc(/C=C2/C(=O)Nc3ccccc32)c1O [Compound 11, 3-[(E)-(2-hydroxy-3-methoxyphenyl)methylidene]-1,3-dihydro-2H-indol-2-one] |  | 374 µM and 194 to 455 µM | 
18 | O=C1Nc2ccccc2/C1=C\c1ccc(Cl)c(Cl)c1 [Compound 12, 3-[(E)-(3,4-dichlorophenyl)methylidene]-1,3-dihydro-2H-indol-2-one] | < 50% |  | 
19 | O=C1Nc2ccccc2/C1=C\c1ccc([N+](=O)[O-])cc1 [Compound 15, 3-[(E)-(4-nitrophenyl)methylidene]-1,3-dihydro-2H-indol-2-one] |  |  | inhibition at 1000 µM [4]: < 50%
20 | O=C1Nc2ccccc2/C1=C\c1ccccc1O [Compound 20, 3-[(E)-(2-hydroxyphenyl)methylidene]-1,3-dihydro-2H-indol-2-one] |  |  | IC50 [1]: 285 µM and 194 to 455 µM; activity against the protein glycation (in words): potent activity
21 | C[C@@H]1O[C@@H](OC[C@H]2O[C@@H](Oc3c(-c4ccc(O)c(O)c4)oc4cc(O)cc(O)c4c3=O)[C@H](O)[C@@H](O)[C@@H]2O)[C@H](O)[C@H](O)[C@H]1O [Rutin, reference compound] |  |  | IC50 [1]: 294 µM
